A word on the pest or weed control: it is the degree to which the test organism was suppressed or injured, in per cent. High values mean a strong effect, low ones a weak effect.

What all share (assay type): in vivo
Test [1] deals with Puccinia recondita f. sp. Tritici. Put plainly: Test B: preventive spray on wheat seedlings, wheat leaf rust disease rating. Particulars: 100 = 100% disease control, 0 = no control; for pest or weed control at 50 ppm: Puccinia recondita, 192 h. The source says:
(§1) General protocol for preparing test suspensions for Tests A-F: the test compounds were first dissolved in acetone in an amount equal to 3% of the final volume and then suspended at the desired concentration (in ppm) in acetone and purified water (50/50 mix by volume) containing 50 to 250 ppm of the surfactant PEG400 (polyhydric alcohol esters). The resulting test suspensions were then used in Tests A-F.
The test solution was sprayed to the point of run-off on wheat seedlings. The following day the seedlings were inoculated with a spore suspension of Puccinia recondita f. sp. Tritici (the causal agent of wheat leaf rust) and incubated in a saturated atmosphere at 20° C. for 24 h, and then moved to a growth chamber at 20° C. for 7 days, after which time disease ratings were made.
(§2) The test suspension was sprayed to the point of run-off on tomato seedlings. The following day the seedlings were inoculated with a spore suspension of Alternaria solani (the causal agent of tomato early blight) and incubated in a saturated atmosphere at 27° C. for 48 h, and then moved to a growth chamber at 20° C. for 3 days, after which time visual disease ratings were made. A rating of 100 indicates 100% disease control and a rating of 0 indicates no disease control (relative to the controls). A dash (-) indicates the compound was not tested.

The test system of test [2] is Botrytis cinerea. Put plainly: Test E: preventive spray on tomato seedlings, tomato Botrytis disease rating. Conditions: 100 = 100% disease control, 0 = no control; for pest or weed control at 50 ppm: Botrytis cinerea, 120 h.
From the text: as §1
The test suspension was sprayed to the point of run-off on tomato seedlings. The following day the seedlings were inoculated with a spore suspension of Botrytis cinerea (the causal agent of tomato Botrytis) and incubated in a saturated atmosphere at 20° C. for 48 h, and then moved to a growth chamber at 24° C. for 3 days, after which time visual disease ratings were made.
as §2

The test system of test [3] is Alternaria solani. Briefly: Test F: preventive spray on tomato seedlings, tomato early blight disease rating. Conditions: 100 = 100% disease control, 0 = no control; for pest or weed control at 50 ppm: Alternaria solani, 120 h.
From the text: as §1, §2

Test [4] has as its system Zymoseptoria tritici. Briefly: Test A: preventive spray on wheat seedlings, wheat leaf blotch disease rating. Particulars: 100 = 100% disease control, 0 = no control; for pest or weed control at 50 ppm: Zymoseptoria tritici, 456 h.
From the text: as §1
The test solution was sprayed to the point of run-off on wheat seedlings. The following day the seedlings were inoculated with a spore suspension of Zymoseptoria tritici (the causal agent of wheat leaf blotch) and incubated in a saturated atmosphere at 24° C. for 48 h, and then moved to a growth chamber at 20° C. for 17 days, after which time disease ratings were made. […]

Test [5] deals with Blumeria graminis f. sp. Tritici. Briefly: Test C: preventive spray on wheat seedlings, wheat powdery mildew disease rating. Particulars: 100 = 100% disease control, 0 = no control; for pest or weed control at 50 ppm: Blumeria graminis, 192 h.
From the text: as §1
The test suspension was sprayed to the point of run-off on wheat seedlings. The following day the seedlings were inoculated with a spore dust of Blumeria graminis f. sp. Tritici, (also known as Erysiphe graminis f. sp. Tritici, the causal agent of wheat powdery mildew) and incubated in a growth chamber at 20° C. for 8 days, after which time visual disease ratings were made.
as §2

Test [6] concerns Phakopsora pachyrhizi. Briefly: Test D: preventive spray on soybean seedlings, Asian soybean rust disease rating. Conditions: 100 = 100% disease control, 0 = no control; for pest or weed control at 50 ppm: Phakopsora pachyrhizi, 216 h.
From the text: as §1
The test solution was sprayed to the point of run-off on soybean seedlings. The following day the seedlings were inoculated with a spore suspension of Phakopsora pachyrhizi (the causal agent of Asian soybean rust) and incubated in a saturated atmosphere at 22° C. for 24 h and then moved to a growth chamber at 22° C. for 8 days, after which time visual disease ratings were made.
as §2

`Cn1nc(-c2ccsc2)c(-c2c(F)cccc2F)cc1=O` [Compound 1]: the “Test B disease control rating” value in test [1] (250 ppm) is 0%. Besides, the “Test E disease control rating” value in test [2] (250 ppm) worked out at 0%. In addition, the “Test F disease control rating” value in test [3] (250 ppm) is reported as 0%. In addition, in test [4] (250 ppm), the “Test A disease control rating” value was found to be 0%. Moreover, the “Test C disease control rating” value in test [5] (250 ppm) is reported as 0%. The “Test D disease control rating” value in test [6] (250 ppm) was found to be 65%.

`Cn1nc(-c2cccnc2)c(-c2c(F)cccc2F)cc1=O` [Compound 2]: the “Test B disease control rating” value in test [1] (50 ppm) is 0%. For the same molecule, the “Test E disease control rating” value in test [2] (50 ppm) was determined as 0%. For the same molecule, the “Test F disease control rating” value in test [3] (50 ppm) came out at 0%. Also, in test [4] (50 ppm), the “Test A disease control rating” value was 0%. Also, in test [5] (50 ppm), the “Test C disease control rating” value came out at 0%. Also, the “Test D disease control rating” value in test [6] (50 ppm) amounted to 0%.

With `Cn1nc(-c2ccoc2)c(-c2c(F)cccc2F)cc1=O` [Compound 3], the “Test B disease control rating” value in test [1] (250 ppm) is reported as 0%. Besides, in test [2] (250 ppm), the “Test E disease control rating” value worked out at 0%. Moreover, the “Test F disease control rating” value in test [3] (250 ppm) worked out at 0%. In test [4] (250 ppm), the “Test A disease control rating” value came out at 0%. Besides, in test [5] (250 ppm), the “Test C disease control rating” value was 0%. The “Test D disease control rating” value in test [6] (250 ppm) is 38%.

`Cc1ccncc1-c1nn(C)c(=O)c(Cl)c1-c1ccc(F)cc1Cl` [Compound 4, 4-chloro-5-(2-chloro-4-fluorophenyl)-2-methyl-6-(4-methyl-3-pyridinyl)-3(2H)-pyridazinone]: the pest or weed control at 50 ppm in test [1] (50 ppm) worked out at 89%; in test [2] (50 ppm), 65%; in test [3] (50 ppm), 70%; in test [4] (50 ppm) it was 100%; in test [5] (50 ppm) it was 89%; in test [6] (50 ppm), 38%.

For `Cc1c(-c2ccc(F)cc2Cl)c(-c2ccsc2)nn(C)c1=O` [Compound 5], the “Test B disease control rating” value in test [1] (50 ppm) came out at 74%. Also, the “Test E disease control rating” value in test [2] (50 ppm) came to 93%. Also, in test [3] (50 ppm), the “Test F disease control rating” value came out at 91%. Further, the “Test A disease control rating” value in test [4] (50 ppm) was 100%. The “Test C disease control rating” value in test [5] (50 ppm) is 96%. The “Test D disease control rating” value in test [6] (50 ppm) came to 21%.

Regarding `Cc1c(-c2ccc(F)cc2Cl)c(-c2ccsc2Br)nn(C)c1=O` [Compound 6], the “Test B disease control rating” value in test [1] (50 ppm) is given as 100%. Besides, in test [2] (50 ppm), the “Test E disease control rating” value was determined as 91%. In addition, the “Test F disease control rating” value in test [3] (50 ppm) came to 99%. Also, the “Test A disease control rating” value in test [4] (50 ppm) stood at 100%. Further, the “Test C disease control rating” value in test [5] (50 ppm) came to 99%. The “Test D disease control rating” value in test [6] (50 ppm) amounted to 78%.

With `Cc1c(-c2ccc(F)cc2Cl)c(-c2ccsc2Cl)nn(C)c1=O` [Compound 7, 5-(2-chloro-4-fluorophenyl)-6-(2-chloro-3-thienyl)-2,4-dimethyl-3(2H)-pyridazinone], the pest or weed control at 50 ppm came to 100% in test [1] (50 ppm); 97% in test [2] (50 ppm); 99% in test [3] (50 ppm); 99% in test [4] (50 ppm); 99% in test [5] (50 ppm); 100% in test [6] (50 ppm).

Regarding `Cc1sccc1-c1nn(C)c(=O)c(C)c1-c1ccc(F)cc1Cl` [Compound 8], the “Test B disease control rating” value in test [1] (50 ppm) is reported as 100%. In test [2] (50 ppm), the “Test E disease control rating” value was found to be 94%. Moreover, the “Test F disease control rating” value in test [3] (50 ppm) was determined as 99%. For the same molecule, in test [4] (50 ppm), the “Test A disease control rating” value turned out to be 99%. For the same molecule, the “Test C disease control rating” value in test [5] (50 ppm) was 99%. Besides, the “Test D disease control rating” value in test [6] (50 ppm) is 96%.

As to `Cc1c(-c2ccc(F)cc2Cl)c(-c2cccs2)nn(C)c1=O` [Compound 9], the “Test B disease control rating” value in test [1] (50 ppm) is on record as 79%. The “Test E disease control rating” value in test [2] (50 ppm) was 98%. In addition, in test [3] (50 ppm), the “Test F disease control rating” value turned out to be 16%. Further, the “Test A disease control rating” value in test [4] (50 ppm) amounted to 100%. Also, in test [5] (50 ppm), the “Test C disease control rating” value was determined as 95%. The “Test D disease control rating” value in test [6] (50 ppm) is given as 8%.

Take `COc1cc(-c2cc(C#N)c(=O)n(C)c2-c2ccc(F)cc2Cl)ccc1Cl` [Compound 160]: the “Test B disease control rating” value in test [1] (250 ppm) came to 80%. In test [2] (250 ppm), the “Test E disease control rating” value was 94%. Moreover, the “Test A disease control rating” value in test [4] (250 ppm) amounted to 46%. Moreover, the “Test C disease control rating” value in test [5] (250 ppm) is 0%. For the same molecule, in test [6] (250 ppm), the “Test D disease control rating” value is listed as 0%.
